Test results as given in patent publication EP2567959B1, “6-(4-HYDROXY-PHENYL)-3-STYRYL-1H-PYRAZOLO[3,4-B]PYRIDINE-4-CARBOXYLIC ACID AMIDE DERIVATIVES AS KINASE INHIBITORS” (SANOFI, priority 2011, dated 2013).

Target: T1, human full-length recombinant PKC βII (Homo sapiens, UniProt P05771)
T1 construct: Active human full-length recombinant PKC βII; purchased Invitrogen GmbH, Darmstadt, Germany
Assay: Determination of PKC βII inhibition (Caliper mobility-shift kinase assay, phosphorylation of fluorescein peptide substrate)
Format: biochemical
Conditions: final compound concentration 1.14 µM (±0.15 µM); 60 min incubation at 32 °C
Protocol: Determination of PKC βII inhibition
PKC βII inhibition was determined according to the following protocol:
Active human full-length recombinant PKC βII and the peptide substrate, Fluorescein-RFARKGSLRQKNV, were purchased from Invitrogen GmbH, Darmstadt, Germany. Adenosine-5'-triphosphate (ATP), bovine serum albumine (BSA), dimethylsulphoxide (DMSO), 4-(2-hydroxyethyl)piperazine-1-ethanesulfonic acid (Hepes), Triton X-100, 1,2-Dioleoyl-sn-glycerol (DAG), L-α-Phosphatidyl-L-serine (PS), calcium chloride (CaCl2), and Pluronic F-68 were purchased from Sigma-Aldrich, Munich, Germany. Magnesium chloride, 1 M sodium hydroxide solution, 1M hydrochloric acid solution and EDTA were obtained from Merck Biosciences, Darmstadt, Germany.
Test compounds were diluted to three times the test concentration in buffer 1 (30 mM Hepes-NaOH, pH 7.4, 0.01 % Pluronic F-68 and 3 % (v/v) DMSO). The PKC βII enzyme was diluted to a concentration of 30 ng/ml in buffer 2 (30 mM Hepes-NaOH, pH 7.4, 15 mM MgCl2,150 µM CaCl2, 150 µg/ml PS, 60 µg/ml DAG, and 0.045 % (w/v) Triton X-100). The peptide substrate and ATP were diluted to concentrations of 3 µM and 120 µM, respectively, in buffer 2. Two µl of the compound solution were mixed with 2 µl of the diluted enzyme in a 384-well small volume microtiter plate (Greiner, Bio-One, Frickenhausen, Germany), and the kinase reaction was initiated by addition of 2 µl of the solution containing peptide substrate and ATP. After 60 min incubation at 32 °C, the reaction was stopped by addition of 20 µl of a solution containing 130 mM Hepes-NaOH, pH 7.4, 0.0195 % (v/v) Brij-35, 6.5 mM EDTA, 0.13 % chip coating reagent 3 (Caliper Lifescience Inc, Hopkinton, MA) and 6.5 % (v/v) DMSO. Phosphorylation of the substrate peptide was then detected on a Caliper 3000 instrument essentially as described by Pommereau et al (J. Biomol. Screening 2004, 9(5), 409-416). Separation conditions were as follows: Pressure -0.8 psi, upstream voltage - 3000 V, downstream voltage -800 V. Positive controls (buffer 1 instead of compound) and negative controls (buffer 1 instead of compound and buffer 2 instead of kinase solution) were run in parallel on each plate. Fractional turnover (R) was determined as the height of the peak of the phosphorylated peptide product divided by the sum of the unphosphorylated substrate and phosphorylated product peak heights. Percent-inhibition values for the test compounds were determined using the formula % Inhibition = 100*(1-(Rcompound-Rnegative control)/(Rpositive control-Rnegative control). [formula]
In the following table % inhibition values observed with example compounds at a final concentration of 1.14 µM (±0.15 µM) are listed: […]

T1 sequence (P05771 1-673 isoform P05771-2): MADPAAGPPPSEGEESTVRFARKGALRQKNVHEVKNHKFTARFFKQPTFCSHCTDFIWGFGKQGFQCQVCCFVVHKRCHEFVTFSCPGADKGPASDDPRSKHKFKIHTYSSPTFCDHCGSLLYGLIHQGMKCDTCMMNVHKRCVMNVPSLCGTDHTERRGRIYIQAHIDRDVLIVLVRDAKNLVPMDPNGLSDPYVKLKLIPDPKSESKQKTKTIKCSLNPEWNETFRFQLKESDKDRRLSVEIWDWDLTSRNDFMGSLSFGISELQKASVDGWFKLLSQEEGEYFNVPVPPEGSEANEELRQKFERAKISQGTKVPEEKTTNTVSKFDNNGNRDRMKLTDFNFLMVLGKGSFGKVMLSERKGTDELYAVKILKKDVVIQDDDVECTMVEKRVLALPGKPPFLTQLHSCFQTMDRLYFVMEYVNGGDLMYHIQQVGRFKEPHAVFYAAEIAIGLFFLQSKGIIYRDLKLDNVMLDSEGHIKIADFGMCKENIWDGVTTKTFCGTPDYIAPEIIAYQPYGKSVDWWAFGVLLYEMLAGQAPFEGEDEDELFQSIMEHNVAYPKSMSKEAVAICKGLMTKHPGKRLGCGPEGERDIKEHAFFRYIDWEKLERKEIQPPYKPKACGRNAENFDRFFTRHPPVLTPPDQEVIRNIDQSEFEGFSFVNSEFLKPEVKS

inhibition at 1.14 µM	Compound
99%	CN(C)C(=O)c1cccc(/C=C/c2n[nH]c3nc(-c4ccc(O)cc4)cc(C(=O)N4CCNCC4)c23)c1 [Example 31, 3-{(E)-2-[6-(4-Hydroxy-phenyl)-4-(piperazine-1-carbonyl)-1H-py-razolo[3,4-b]py-ridin-3-yl]-vinyl}-N,N-dimethyl-benzamide]
98%	COc1cc(/C=C/c2n[nH]c3nc(-c4ccc(O)cc4)cc(C(=O)N4CCNCC4)c23)cc(OC)c1OC [Example 62, {6-(4-hydroxy-phenyl)-3-[(E)-2-(3,4,5-trimethoxy-phenyl)-vinyl]-1H-pyrazolo[3,4-b]pyridin-4-yl}-piperazin-1-yl-methanone]
97%	O=C(c1cc(-c2ccc(O)cc2)nc2[nH]nc(/C=C/c3ccc(F)c(F)c3)c12)N1CCNCC1 [Example 59, [3-[(E)-2-(3,4-Difluoro-phenyl)-vinyl]-6-(4-hydroxy-phenyl)-1H-pyrazolo[3,4-b]pyridin-4-yl]-piperazin-1-yl-methanone]
98%	CN1Cc2ccc(/C=C/c3n[nH]c4nc(-c5ccc(O)cc5)cc(C(=O)N5CCNCC5)c34)cc2C1=O [Example 35, 6-{(E)-2-[6-(4-Hydroxy-phenyl)-4-(piperazine-1-carbonyl)-1H-pyrazolo[3,4-b]pyridin-3-yl]-vinyl}-2-methyl-2,3-dihydro-isoindol-1-one]
88%	CC1(C)CNCCN1C(=O)c1cc(-c2ccc(O)cc2)nc2[nH]nc(/C=C/c3ccccc3)c12 [Example 3, (2,2-Dimethyl-piperazin-1-yl)-[6-(4-hydroxy-phenyl)-3-((E)-styryl)-1 H-pyrazolo[3,4-b]pyridin-4-yl]-methanone]
54%	CN(C)C(=O)CN1CCN(C(=O)c2cc(-c3ccc(O)cc3)nc3[nH]nc(/C=C/c4ccccc4)c23)CC1 [Example 84, 2-{4-[6-(4-Hydroxy-phenyl)-3-((E)-styryl)-1H-pyrazolo[3,4-b]-pyridine-4-carbo-nyl]-piperazin-1-yl}-N,N-dimethyl-acetamide]
79%	CCCC[C@@H]1CNCCN1C(=O)c1cc(-c2ccc(O)cc2)nc2[nH]nc(/C=C/c3ccccc3)c12 [Example 77, ((R)-2-Butyl-piperazin-1-yl)-[6-(4-hydroxy-phenyl)-3-((E)-styryl)-1H-pyra-zolo[3,4-b]-pyridin-4-yl]-methanone]
98%	C[C@H]1CNCCN1C(=O)c1cc(-c2ccc(O)cc2)nc2[nH]nc(/C=C/c3ccccc3)c12 [Example 6, [6-(4-Hydroxy-phenyl)-3-((E)-styryl)-1H-pyrazolo[3,4-b]pyridin-4-yl]-((S)-2-methyl-piperazin-1-yl)-methanone]
76%	Cc1ccc(/C=C/c2n[nH]c3nc(-c4ccc(O)cc4)cc(C(=O)N4CCNCC4)c23)cc1F [Example 55, [3-[(E)-2-(3-Fluoro-4-methyl-phenyl)-vinyl]-6-(4-hydroxy-phenyl)-1H-pyrazolo[3,4-b]pyridin-4-yl]-piperazin-1-yl-methanone]
99%	O=C(c1cc(-c2ccc(O)cc2)nc2[nH]nc(/C=C/c3ccc4c(c3)CCO4)c12)N1CCNCC1 [Example 64, [3-[(E)-2-(2,3-Dihydrobenzofuran-5-yl)-vinyl]-6-(4-hydroxy-phenyl)-1H-pyrazolo[3,4-b]pyridin-4-yl]-piperazin-1-yl-methanone]
96%	Cc1cc(/C=C/c2n[nH]c3nc(-c4ccc(O)cc4)cc(C(=O)N4CCNCC4)c23)ccc1C#N [Example 29, 4-{(E)-2-[6-(4-Hydroxy-phenyl)-4-(piperazine-1-carbonyl)-1H-pyrazolo[3,4-b]pyridin-3-yl]-vinyl}-2-methyl-benzonitrile]
94%	CC(C)(CO)C(=O)N1CCN(C(=O)c2cc(-c3ccc(O)cc3)nc3[nH]nc(/C=C/c4ccccc4)c23)CC1 [Example 87, 3-Hydroxy-1-{4-[6-(4-hydroxy-phenyl)-3-((E)-styryl)-1H-pyra-zolo[3,4-b]pyri-dine-4-carbonyl]-piperazin-1-yl}-2,2-dimethyl-propan-1-one]
